In patent publication US20230092890A1, “1, 3, 4-Oxadiazole derivative compounds as histone deacetylase 6 inhibitor, and the pharmaceutical composition comprising the same” (Chong Kun Dang Pharmaceutical Corp., priority 2019, published 2023):

Assays:
[1] = molecular target: T1, HDAC6 human recombinant (Homo sapiens, UniProt Q9UBN7); assay: HDAC enzyme activity inhibition (in vitro), HDAC6 assay; assay type: biochemical; details: samples at 0.1, 1, 10, 100 and 1000 nM; 37° C. 60 minutes; fluorescence Ex 390, Em 460; read-out: HDAC6 IC50
T1 construct: purchased Calbiochem 382180
T1 sequence (Q9UBN7 1-1215): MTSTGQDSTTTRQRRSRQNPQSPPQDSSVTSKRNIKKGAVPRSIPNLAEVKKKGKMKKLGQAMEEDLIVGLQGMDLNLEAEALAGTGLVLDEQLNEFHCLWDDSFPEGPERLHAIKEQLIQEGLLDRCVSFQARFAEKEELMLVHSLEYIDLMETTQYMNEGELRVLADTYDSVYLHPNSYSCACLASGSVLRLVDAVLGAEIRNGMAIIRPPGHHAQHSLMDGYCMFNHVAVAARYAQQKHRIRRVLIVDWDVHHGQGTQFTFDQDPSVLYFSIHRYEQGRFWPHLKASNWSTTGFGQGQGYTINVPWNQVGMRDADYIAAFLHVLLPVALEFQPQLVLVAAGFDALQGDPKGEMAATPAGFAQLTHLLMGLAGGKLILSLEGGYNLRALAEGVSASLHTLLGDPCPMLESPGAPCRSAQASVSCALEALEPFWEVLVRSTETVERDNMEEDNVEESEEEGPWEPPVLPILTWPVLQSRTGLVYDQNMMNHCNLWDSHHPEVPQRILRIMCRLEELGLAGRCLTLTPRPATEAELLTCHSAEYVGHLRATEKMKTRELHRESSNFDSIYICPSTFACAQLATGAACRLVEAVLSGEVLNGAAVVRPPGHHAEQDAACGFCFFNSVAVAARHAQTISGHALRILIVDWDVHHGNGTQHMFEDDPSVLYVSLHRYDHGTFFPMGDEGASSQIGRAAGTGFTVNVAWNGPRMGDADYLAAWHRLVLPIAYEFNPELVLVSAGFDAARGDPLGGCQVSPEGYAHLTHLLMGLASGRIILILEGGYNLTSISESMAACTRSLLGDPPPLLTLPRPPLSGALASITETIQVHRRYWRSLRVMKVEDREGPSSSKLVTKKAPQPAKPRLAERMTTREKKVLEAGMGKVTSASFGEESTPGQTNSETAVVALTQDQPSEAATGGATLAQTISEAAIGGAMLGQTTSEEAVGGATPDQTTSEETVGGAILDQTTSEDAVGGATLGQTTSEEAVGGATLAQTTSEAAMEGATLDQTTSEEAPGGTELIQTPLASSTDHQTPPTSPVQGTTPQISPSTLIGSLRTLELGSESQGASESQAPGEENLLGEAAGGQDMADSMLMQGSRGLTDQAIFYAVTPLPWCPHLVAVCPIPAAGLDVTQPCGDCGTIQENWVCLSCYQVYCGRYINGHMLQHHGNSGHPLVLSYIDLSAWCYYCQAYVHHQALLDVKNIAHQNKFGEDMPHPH
How it was run: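 HDAC6 human recombinant enzyme with fluorimetric substrate; […]. Reaction 60 min at 37° C, then developer 30 min at 37° C; fluorescence read at Ex 390/Em 460.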

[2] = molecular target: T2, HDAC1 (Homo sapiens, UniProt Q13547); assay: HDAC enzyme activity inhibition (in vitro), HDAC1 Fluorimetric Drug Discovery Assay Kit; assay type: biochemical; details: samples at 100, 1000 and 10000 nM; 37° C. 60 minutes; fluorescence Ex 390, Em 460; read-out: HDAC1 IC50
T2 construct: purchased Enzolifesciences BML-AK511
How it was run: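 Compounds at 100, 1000, 10000 nM (HDAC1) or 0.1, 1, 10, 100, 1000 nM (HDAC6); 37° C, 60 min; developer, 37° C, 30 min; fluorescence Ex 390/Em 460.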

T2 sequence (Q13547 whole entry): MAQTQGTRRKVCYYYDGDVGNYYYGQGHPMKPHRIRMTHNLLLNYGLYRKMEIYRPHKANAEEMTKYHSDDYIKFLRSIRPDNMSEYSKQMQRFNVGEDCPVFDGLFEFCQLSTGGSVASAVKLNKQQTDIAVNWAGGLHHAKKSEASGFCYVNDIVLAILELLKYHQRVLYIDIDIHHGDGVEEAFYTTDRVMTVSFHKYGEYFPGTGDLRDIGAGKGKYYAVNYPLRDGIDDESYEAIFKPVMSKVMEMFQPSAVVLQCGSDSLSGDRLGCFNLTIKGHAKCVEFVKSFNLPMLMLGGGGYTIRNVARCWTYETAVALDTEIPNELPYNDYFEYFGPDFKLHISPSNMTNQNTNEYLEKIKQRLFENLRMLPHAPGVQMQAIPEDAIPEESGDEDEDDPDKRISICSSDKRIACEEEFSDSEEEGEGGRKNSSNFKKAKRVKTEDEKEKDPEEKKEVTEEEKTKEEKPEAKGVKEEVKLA

Row | IC50 [1] [nM] | IC50 [2] [nM] | Compound
1 | 42 | > 10000 | CC(=O)N1CCC(n2c(=O)n(Cc3ccc(-c4nnc(C(F)F)o4)cn3)c3cc(C(F)(F)F)ccc32)CC1 [Compound 176, 1-(1-acetylpiperidine-4-yl)-3-((5-(5-(difluoromethyl)-1,3,4-oxadiazole-2-yl)pyridine-2-yl)methyl)-5-(trifluoromethyl)-1,3-dihydro-2H-benzo[d]imidazole-2-one]
2 | 71 | > 10000 | Cc1ccc(-c2cc3c(cc2F)n(Cc2ccc(-c4nnc(C(F)F)o4)cn2)c(=O)n3C)o1 [Compound 177, 1-((5-(5-(difluoromethyl)-1,3,4-oxadiazole-2-yl)pyridine-2-yl)methyl)-6-fluoro-3-methy 1-5-(5-methylfuran-2-yl)-1,3-dihydro-2H-benzo[d]imidazole-2-one]
3 | 20 | > 10000 | Cc1noc(C)c1-c1cc2c(cc1F)n(Cc1ccc(-c3nnc(C(F)F)o3)cn1)c(=O)n2C [Compound 178, 1-((5-(5-(difluoromethyl)-1,3,4-oxadiazole-2-yl)pyridine-2-yl)methyl)-5-(3,5-dimethylisoxazole-4-yl)-6-fluoro-3-methyl-1,3-dihydro-2H-benzo[d]imidazole-2-one]
4 | 145 | > 10000 | CN1CCC(n2c(=O)n(Cc3ccc(-c4nnc(C(F)F)o4)cc3F)c3ccc(C4CCN(C(=O)CO)CC4)cc32)CC1 [Compound 179, 1-(4-(5-(difluoromethyl)-1,3,4-oxadiazole-2-yl)-2-fluorobenzyl)-5-(1-(2-hydroxyacetyl)piperidine-4-yl)-3-(1-methylpiperidine-4-yl)-1,3-dihydro-2H-benzo[d]imidazole-2-one]
5 | 38 | > 10000 | CC(=O)N1CCC(n2c(=O)n(Cc3ccc(-c4nnc(C(F)F)o4)cc3F)c3cc(C(F)(F)F)ccc32)CC1 [Compound 180, 1-(1-acetylpiperidine-4-yl)-3-(4-(5-(difluoromethyl)-1,3,4-oxadiazole-2-yl)-2-fluorobenzyl)-5-(trifluoromethyl)-1,3-dihydro-2H-benzo[d]imidazole-2-one]
6 | 68 | > 10000 | CC(=O)N1CCC(n2c(=O)n(Cc3ccc(-c4nnc(C(F)F)o4)cn3)c3ccc(Cl)cc32)CC1 [Compound 181, 3-(1-acetylpiperidine-4-yl)-5-chloro-1-((5-(5-(difluoromethyl)-1,3,4-oxadiazole-2-yl)pyridine-2-yl)methyl)-1,3-dihydro-2H-benzo[d]imidazole-2-one]
7 | 118 | > 10000 | CC(=O)N1CCC(n2c(=O)n(Cc3ccc(-c4nnc(C(F)F)o4)cc3F)c3ccc(Cl)cc32)CC1 [Compound 182, 3-(1-acetylpiperidine-4-yl)-5-chloro-1-(4-(5-(difluoromethyl)-1,3,4-oxadiazole-2-yl)-2-fluorobenzyl)-1,3-dihydro-2H-benzo[d]imidazole-2-one]
8 | 73 | > 10000 | CC(=O)N1CCC(n2c(=O)n(Cc3ccc(-c4nnc(C(F)F)o4)cc3)c3ccc(Cl)cc32)CC1 [Compound 183, 3-(1-acetylpiperidine-4-yl)-5-chloro-1-(4-(5-(difluoromethyl)-1,3,4-oxadiazole-2-yl)benzyl)-1,3-dihydro-2H-benzo[d]imidazole-2-one]
9 | 137 | > 10000 | CC(=O)N1CCC(n2c(=O)n(Cc3ccc(-c4nnc(C(F)F)o4)cn3)c3ncccc32)CC1 [Compound 184, 1-(1-acetylpiperidine-4-yl)-3-((5-(5-(difluoromethyl)-1,3,4-oxadiazole-2-yl)pyridine-2-yl)methyl)-1,3-dihydro-2H-imidazo[4,5-b]pyridine-2-one]
10 | 202 | > 10000 | CC(=O)N1CCC(n2c(=O)n(Cc3ccc(-c4nnc(C(F)F)o4)cc3F)c3ncccc32)CC1 [Compound 185, 1-(1-acetylpiperidine-4-yl)-3-(4-(5-(difluoromethyl)-1,3,4-oxadiazole-2-yl)-2-fluorobenzyl)-1,3-dihydro-2H-imidazo[4,5-b]pyridine-2-one]
